In patent publication US9603858B2, “Compositions for preventing and treating an immune system disorder” (RAISIO NUTRITION LTD., priority 2010, dated 2017):

What was measured:
[1] = system: PBMCs from asthma patients; assay: Cytokine production in PHA stimulated PBMCs cultured ex vivo with sitostanol; type: cell-based, human; conditions: sitostanol 1.2 μM, 52 hours PHA stimulation
Description: 20 people were enrolled in the study: 10 asthma patients and 10 healthy controls. Healthy controls were matched to the asthma patients in sex, age and body mass index (BMI). Exclusion criteria were smoking, diabetes, autoimmune diseases, inflammatory diseases, and the use of plant stanol or plant sterol enriched food products. Blood was taken twice from each participant, with a four-week interval. Peripheral blood mononuclear cells (PBMCs) were isolated and cultured with either cholesterol or sitostanol added to the culture. The concentration of PBMCs in the test culture was the same as in blood naturally. The concentrations of sitostanol and cholesterol were 1.2 μM. After 52 hours of stimulation with PHA (phytohemagglutinin), cytokine concentrations in the culture medium were determined. Cholesterol was added as a control to see whether the observed effects were specific plant stanol effects.

TLR2 = biological target: T1, TLR2 (Homo sapiens, UniProt O60603); assay: Mechanism of the Th1 shift: TLR2 activation; type: cell-based
T1 construct: endogenous in cells
T1 sequence (O60603 21-784): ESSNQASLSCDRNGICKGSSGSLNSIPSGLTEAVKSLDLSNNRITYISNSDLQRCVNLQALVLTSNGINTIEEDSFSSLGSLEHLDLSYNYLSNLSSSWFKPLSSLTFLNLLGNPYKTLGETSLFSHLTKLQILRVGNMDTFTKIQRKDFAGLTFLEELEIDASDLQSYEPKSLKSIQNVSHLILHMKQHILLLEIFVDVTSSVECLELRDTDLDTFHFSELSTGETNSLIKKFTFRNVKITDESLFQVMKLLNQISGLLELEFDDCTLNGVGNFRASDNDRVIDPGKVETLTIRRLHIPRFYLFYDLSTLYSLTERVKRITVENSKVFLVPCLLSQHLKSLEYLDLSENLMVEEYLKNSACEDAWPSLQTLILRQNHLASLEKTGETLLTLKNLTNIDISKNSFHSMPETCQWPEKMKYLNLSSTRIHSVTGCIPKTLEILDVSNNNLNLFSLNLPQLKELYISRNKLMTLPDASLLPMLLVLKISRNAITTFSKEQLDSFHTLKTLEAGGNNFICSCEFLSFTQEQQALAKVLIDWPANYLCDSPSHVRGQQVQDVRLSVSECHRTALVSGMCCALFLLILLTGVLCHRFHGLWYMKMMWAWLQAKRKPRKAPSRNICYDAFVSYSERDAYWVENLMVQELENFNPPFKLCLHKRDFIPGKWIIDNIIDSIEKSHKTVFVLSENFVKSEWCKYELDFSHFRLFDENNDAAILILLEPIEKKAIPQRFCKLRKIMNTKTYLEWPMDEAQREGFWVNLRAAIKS

SMILES: CC[C@H](CC[C@@H](C)[C@H]1CC[C@H]2[C@@H]3CC[C@H]4C[C@@H](O)CC[C@]4(C)[C@H]3CC[C@]12C)C(C)C [sitostanol]
- IFNγ concentration in the culture medium, change vs. control condition ([1]; FIG. 1): increases
- IL-2 concentration in the culture medium, change vs. control condition ([1]; FIG. 1): increases
- IL-10 production in PBMCs from asthma patients, change vs. control condition ([1]; FIG. 2): induces IL-10 production
- Th1 shift via activation of TLR2 (TLR2): induces this Th1 shift via activation of TLR2
